Consider four molecules from publication doi:10.1101/2025.11.21.689733v1, “Identification and Characterization of a Small Molecule Ligand for the Huntingtin-HAP40 Complex” (biorxiv, 2025).

SMILES strings stand for the structures.

Common to all, as to format: binding
One test has as its target T1, HTTQ54-HAP40 (Homo sapiens, UniProt P23610+P42858, P42858:INS38QQQQQQQQQQQQQQQQQQQQQQQQQQQQQQQQQ).
T1 construct: gene HTT; full-length HTT with polyQ tract of 54 residues in complex with HAP40; C-terminal Avi-tag biotinylated; Sf9 baculovirus
The test can be described thus: SPR. The source says: SPR on HTTQ54-HAP40 | binding affinity was indistinguishable between wild-type (Q23) HTT-HAP40 and its expanded form (Q54)
(Surface plasmon resonance follows binding to a sensor surface in real time, without labels.)

The target of test [1] is T2, HTTQ23-HAP40 (HTT-HAP40) (Homo sapiens, UniProt P23610+P42858, P42858:INS38QQ).
T2 construct: full-length HTT (3144 aa, polyQ tract Q23) co-complex with HAP40, ~390 kDa; C-terminal Avi-tag biotinylated (BirA) for SPR; Sf9 baculovirus
T2 sequence (P42858 with tags, fused parts or gaps INS38QQ): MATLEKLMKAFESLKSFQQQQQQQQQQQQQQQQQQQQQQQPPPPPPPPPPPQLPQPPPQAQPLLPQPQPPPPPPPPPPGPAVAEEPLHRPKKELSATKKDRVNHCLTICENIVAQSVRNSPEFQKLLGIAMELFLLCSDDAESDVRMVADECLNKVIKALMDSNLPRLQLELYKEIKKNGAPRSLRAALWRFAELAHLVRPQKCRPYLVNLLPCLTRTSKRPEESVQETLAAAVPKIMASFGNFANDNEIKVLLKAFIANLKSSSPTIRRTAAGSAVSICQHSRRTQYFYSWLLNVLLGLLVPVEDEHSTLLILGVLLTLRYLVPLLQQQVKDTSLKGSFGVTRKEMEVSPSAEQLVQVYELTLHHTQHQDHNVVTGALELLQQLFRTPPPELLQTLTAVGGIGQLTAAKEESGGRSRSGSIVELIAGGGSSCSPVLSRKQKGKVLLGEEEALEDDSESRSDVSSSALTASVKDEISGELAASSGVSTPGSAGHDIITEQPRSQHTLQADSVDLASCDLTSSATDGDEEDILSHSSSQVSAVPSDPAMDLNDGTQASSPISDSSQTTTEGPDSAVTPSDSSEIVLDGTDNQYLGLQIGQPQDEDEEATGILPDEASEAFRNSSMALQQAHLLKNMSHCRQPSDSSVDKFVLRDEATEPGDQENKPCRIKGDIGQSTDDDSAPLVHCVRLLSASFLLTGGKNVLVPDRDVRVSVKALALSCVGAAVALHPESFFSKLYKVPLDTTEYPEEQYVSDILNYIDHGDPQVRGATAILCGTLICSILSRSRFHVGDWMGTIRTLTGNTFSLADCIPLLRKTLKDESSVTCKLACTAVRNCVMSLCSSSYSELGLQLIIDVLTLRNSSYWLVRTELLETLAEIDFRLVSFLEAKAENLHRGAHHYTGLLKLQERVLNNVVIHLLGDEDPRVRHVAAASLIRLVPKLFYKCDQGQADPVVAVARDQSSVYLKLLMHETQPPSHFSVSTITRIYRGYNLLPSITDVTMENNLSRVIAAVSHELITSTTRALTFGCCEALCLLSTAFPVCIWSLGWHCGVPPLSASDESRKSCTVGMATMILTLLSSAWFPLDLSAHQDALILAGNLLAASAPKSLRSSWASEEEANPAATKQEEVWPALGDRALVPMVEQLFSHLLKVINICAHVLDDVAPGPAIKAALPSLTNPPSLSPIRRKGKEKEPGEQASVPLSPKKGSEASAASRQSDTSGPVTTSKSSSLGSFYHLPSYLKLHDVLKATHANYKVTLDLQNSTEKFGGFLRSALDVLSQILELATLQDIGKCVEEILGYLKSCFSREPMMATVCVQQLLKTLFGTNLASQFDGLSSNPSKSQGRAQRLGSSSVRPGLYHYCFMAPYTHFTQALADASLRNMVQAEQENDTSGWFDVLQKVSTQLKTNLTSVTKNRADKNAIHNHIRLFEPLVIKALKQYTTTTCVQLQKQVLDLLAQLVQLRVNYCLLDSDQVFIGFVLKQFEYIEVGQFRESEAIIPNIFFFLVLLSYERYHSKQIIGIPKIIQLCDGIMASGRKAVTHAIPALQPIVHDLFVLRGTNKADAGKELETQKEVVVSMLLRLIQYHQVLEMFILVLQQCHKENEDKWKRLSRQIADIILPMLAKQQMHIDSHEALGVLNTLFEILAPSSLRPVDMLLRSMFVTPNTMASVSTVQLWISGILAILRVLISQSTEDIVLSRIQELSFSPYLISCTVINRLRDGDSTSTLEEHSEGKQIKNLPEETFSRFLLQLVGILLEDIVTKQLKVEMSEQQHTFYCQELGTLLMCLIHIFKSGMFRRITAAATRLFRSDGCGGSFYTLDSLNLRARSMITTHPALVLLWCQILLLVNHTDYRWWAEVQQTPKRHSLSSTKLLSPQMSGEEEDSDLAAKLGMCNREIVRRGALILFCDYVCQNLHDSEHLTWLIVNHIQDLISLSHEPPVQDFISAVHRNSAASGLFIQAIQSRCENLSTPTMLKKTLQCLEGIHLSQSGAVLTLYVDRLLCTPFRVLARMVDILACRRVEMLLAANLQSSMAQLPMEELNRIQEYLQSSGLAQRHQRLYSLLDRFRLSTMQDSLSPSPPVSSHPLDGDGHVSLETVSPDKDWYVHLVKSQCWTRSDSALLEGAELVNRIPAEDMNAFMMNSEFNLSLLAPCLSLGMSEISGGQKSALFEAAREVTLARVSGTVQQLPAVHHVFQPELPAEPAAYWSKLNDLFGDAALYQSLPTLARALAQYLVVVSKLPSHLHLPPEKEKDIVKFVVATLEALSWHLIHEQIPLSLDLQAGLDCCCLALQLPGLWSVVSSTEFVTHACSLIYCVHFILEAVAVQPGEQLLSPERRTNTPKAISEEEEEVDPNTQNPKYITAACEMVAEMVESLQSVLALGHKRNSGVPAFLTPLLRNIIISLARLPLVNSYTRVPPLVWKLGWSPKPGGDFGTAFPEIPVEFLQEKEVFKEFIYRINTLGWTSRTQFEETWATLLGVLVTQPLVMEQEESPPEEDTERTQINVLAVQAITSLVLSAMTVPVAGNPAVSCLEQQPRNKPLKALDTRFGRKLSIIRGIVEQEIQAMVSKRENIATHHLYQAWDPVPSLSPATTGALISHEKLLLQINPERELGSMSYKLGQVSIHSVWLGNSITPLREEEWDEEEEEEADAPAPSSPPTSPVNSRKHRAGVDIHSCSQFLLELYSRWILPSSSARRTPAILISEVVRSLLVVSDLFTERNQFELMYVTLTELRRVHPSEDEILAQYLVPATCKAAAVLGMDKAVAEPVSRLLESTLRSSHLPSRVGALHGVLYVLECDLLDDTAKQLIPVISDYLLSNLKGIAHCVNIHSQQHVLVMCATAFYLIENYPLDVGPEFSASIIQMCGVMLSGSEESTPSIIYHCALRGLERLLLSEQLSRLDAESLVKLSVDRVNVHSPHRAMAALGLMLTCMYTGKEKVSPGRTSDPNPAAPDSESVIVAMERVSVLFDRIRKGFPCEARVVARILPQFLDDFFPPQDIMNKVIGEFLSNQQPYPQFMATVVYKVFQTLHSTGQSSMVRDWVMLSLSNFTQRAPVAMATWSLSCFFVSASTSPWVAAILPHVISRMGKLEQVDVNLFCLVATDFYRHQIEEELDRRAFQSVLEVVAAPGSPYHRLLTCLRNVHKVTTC
T2 sequence (P23610 whole entry, stated change not applied): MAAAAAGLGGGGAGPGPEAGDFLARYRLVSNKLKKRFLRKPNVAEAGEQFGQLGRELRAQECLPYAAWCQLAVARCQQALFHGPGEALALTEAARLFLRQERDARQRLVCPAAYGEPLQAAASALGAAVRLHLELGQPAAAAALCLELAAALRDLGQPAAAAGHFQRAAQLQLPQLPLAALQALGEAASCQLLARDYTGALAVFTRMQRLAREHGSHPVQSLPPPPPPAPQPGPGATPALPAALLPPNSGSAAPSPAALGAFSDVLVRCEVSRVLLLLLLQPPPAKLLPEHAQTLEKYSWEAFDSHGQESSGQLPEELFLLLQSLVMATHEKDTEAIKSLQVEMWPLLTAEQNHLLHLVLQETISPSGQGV
The test is described as follows: SPR, steady state, […] model. The settings on record: read-out: apparent KD.

For test [2], the target named is T2, HTTQ23-HAP40 (HTT-HAP40). The test can be described thus: SPR, […] model.
The target of test [3] is T2, HTTQ23-HAP40 (HTT-HAP40). The test is described as follows: SPR, […] model. The note with it: pH 7.4, 150 mM NaCl, 4% DMSO.

Take `Cn1ncc2ccc(CNc3ccccc3C3CC3(F)F)cc21` (racemic) [compound 1, AS-MS Hit 1]: the Kd at HTTQ54-HAP40 worked out at 4 ± 1 µM; at HTTQ23-HAP40 (HTT-HAP40) [1] it was 5 ± 2 µM.
In the case of `Cn1ncc2ccc(CNc3ccccc3[C@H]3CC3(F)F)cc21` (single isomer, unassigned; peak 2) [compound 1, Peak 2 of AS-MS Hit 1], the Kd at HTTQ23-HAP40 (HTT-HAP40) [1] came out at 4 ± 2 µM.
Take `Cn1ncc2ccc(CNc3ccccc3C3CC(F)(F)C3)cc21` [compound 3, 3]: at HTTQ23-HAP40 (HTT-HAP40) [2], the Kd worked out at 3.5 ± 1 µM.
Consider `Cc1nn(C)c2cc(CNc3ccccc3C3CCC(F)(F)C3)ccc12` (centres unmarked) [compound 21, 21], for which the KD entry at HTTQ23-HAP40 (HTT-HAP40) [3] is recorded as “These modifications were well-tolerated but did not improve affinity”.
